Assay results from patent US8993574B2, “Pyrrole antifungal agents” (F2G Ltd, priority 2008, dated 2015).
In brackets after ≈: the same amount, converted by molar mass.

Assays:
Assay type in all cases: cell-based
Aspergillus flavus [1] = test: MIC, YAG medium; settings: Aspergillus flavus, 24 h, 24 h at 35° C, MIC banded into grades, read-out: MIC grade, A. flavus
Summary of the method: (§1)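 Growth inhibition was measured by absorbance at 485 nm following 24 h at 35° C. Spores harvested after 5 days on Sabouraud agar served as inoculum (1−2×10^4 cfu/mL, YAG medium). The lowest drug level producing >70% inhibition was taken as MIC.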

Aspergillus niger [2] = test: MIC, YAG medium; settings: Aspergillus niger, 24 h at 35° C, MIC banded into grades, read-out: MIC grade, A. niger
Summary of the method: as §1

Aspergillus terreus AT4 [3] = test: MIC, YAG medium; settings: Aspergillus terreus, 24 h at 35° C, MIC banded into grades, read-out: MIC grade, A. terreus
Summary of the method: as §1

[4] = test system: Aspergillus fumigatus AF293; test: MIC, YAG medium; settings: Aspergillus fumigatus, 24 h at 35° C, MIC banded into grades, read-out: MIC grade, A. fumigatus
Summary of the method: as §1

[5] = test system: Aspergillus fumigatus AF210; test: MIC, YAG medium; settings: Aspergillus fumigatus, 24 h at 35° C, MIC banded into grades, read-out: MIC grade, A. fumigatus 210
Summary of the method: as §1

Aspergillus terreus AT49 [6] = test: MIC, YAG medium; settings: Aspergillus terreus, 24 h at 35° C, MIC banded into grades, read-out: MIC grade, A. terreus 49
Summary of the method: as §1

Aspergillus flavus [7] = test: MIC, RPMI medium; settings: Aspergillus flavus, MIC banded into grades, read-out: MIC grade, A. flavus
Summary of the method: (§2)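 Broth microdilution in RPMI medium with 2% glucose and 0.135 M MOPS (pH 7.0); compounds as doubling dilutions over 50-0.05 mg/L, inoculum 1−2×10^4 cfu/mL. Plates incubated 24-48 h at 35° C; OD 485 nm read, MIC being lowest concentration giving >80% growth inhibition versus drug-free control.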

Aspergillus niger [8] = test: MIC, RPMI medium; settings: Aspergillus niger, MIC banded into grades, read-out: MIC grade, A. niger
Summary of the method: as §2

Aspergillus terreus AT4 [9] = test: MIC, RPMI medium; settings: Aspergillus terreus, AT4, MIC banded into grades, read-out: MIC grade, A. terreus
Summary of the method: as §2

[10] = test system: Aspergillus fumigatus AF293; test: MIC, RPMI medium; settings: Aspergillus fumigatus, AF293, MIC banded into grades, read-out: MIC grade, A. fumigatus
Summary of the method: as §2

[11] = test system: Aspergillus fumigatus AF210; test: MIC, RPMI medium; settings: Aspergillus fumigatus, AF210, MIC banded into grades, read-out: MIC grade, A. fumigatus 210
Summary of the method: as §2

Aspergillus terreus AT49 [12] = test: MIC, RPMI medium; settings: Aspergillus terreus, AT49, MIC banded into grades, read-out: MIC grade, A. terreus 49
Summary of the method: as §2

| Compound | MIC (Aspergillus flavus [1]) [mg/L] | MIC (Aspergillus niger [2]) [mg/L] | MIC (Aspergillus terreus AT4 [3]) [mg/L] | MIC [4] [mg/L] | MIC [5] [mg/L] | MIC (Aspergillus terreus AT49 [6]) [mg/L] | MIC (Aspergillus flavus [7]) [mg/L] | MIC (Aspergillus niger [8]) [mg/L] | MIC (Aspergillus terreus AT4 [9]) [mg/L] | MIC [10] [mg/L] | MIC [11] [mg/L] | MIC (Aspergillus terreus AT49 [12]) [mg/L] |
| --- | --- | --- | --- | --- | --- | --- | --- | --- | --- | --- | --- | --- |
| Cc1cc(C)nc(N2CCN(c3ccc(NC(=O)C(=O)c4c(-c5ccccc5)ccn4C)cc3)CC2)c1 [Example 45, N-{4-[4-(4,6-Dimethyl-pyridin-2-yl)-piperazin-1-yl]-phenyl}-2-(1-methyl-3-phenyl-1H-pyrrol-2-yl)-2-oxo-acetamide] | < 1 | < 1 | < 1 | < 1 | < 1 | < 1 | < 1 | < 1 | < 1 | < 1 | < 1 | < 1 |
| COCCn1c(C)cc(-c2ccccc2)c1C(=O)C(=O)Nc1ccc(N2CCN(CC(C)C)CC2)cc1F [Example 110, N-[2-Fluoro-4-(4-isobutyl-piperazin-1-yl)-phenyl]-2-[1-(2-methoxy-ethyl)-5-methyl-3-phenyl-1H-pyrrol-2-yl]-2-oxo-acetamide] | 1 to 10 (≈ 1.92 to 19.2 µM) | < 1 | < 1 | < 1 | < 1 | 1 to 10 (≈ 1.92 to 19.2 µM) | 1 to 10 (≈ 1.92 to 19.2 µM) | 1 to 10 (≈ 1.92 to 19.2 µM) | < 1 | < 1 | < 1 | < 1 |
| Cc1cc(C)nc(N2CCN(c3ccc(NC(=O)C(=O)c4c(-c5ccccc5)cc(C)n4Cc4ccccn4)cc3)CC2)c1 [Example 91, N-{4-[4-(4,6-Dimethyl-pyridin-2-yl)-piperazin-1-yl]-phenyl}-2-(5-methyl-3-phenyl-1-pyridin-2-ylmethyl-1H-pyrrol-2-yl)-2-oxo-acetamide] | > 10 | > 10 | > 10 | 1 to 10 (≈ 1.71 to 17.1 µM) | 1 to 10 (≈ 1.71 to 17.1 µM) | 1 to 10 (≈ 1.71 to 17.1 µM) | > 10 | > 10 | > 10 | > 10 | > 10 | > 10 |
| Cc1cc(-c2ccccc2)c(C(=O)C(=O)Nc2ccc(-c3ncco3)c(F)c2)n1C [Example 148, 2-(1,5-Dimethyl-3-phenyl-1H-pyrrol-2-yl)-N-[3-fluoro-4-oxazole-2-yl-phenyl)-2-oxo-acetamide] | < 1 | < 1 | < 1 | < 1 | < 1 | < 1 | < 1 | < 1 | < 1 | < 1 | 1 to 10 (≈ 2.48 to 24.8 µM) | < 1 |
| Cc1cc(-c2ccccc2)c(C(=O)C(=O)Nc2ccc(N3CCN(c4ccccn4)CC3)c(F)c2)n1C [Example 116, 2-(1,5-Dimethyl-3-phenyl-1H-pyrrol-2-yl)-N-[3-fluoro-4-(4-pyridin-2-yl-piperazin-1-yl)-phenyl]-2-oxo-acetamide] | < 1 | < 1 | < 1 | < 1 | < 1 | < 1 | > 10 | < 1 | < 1 | < 1 | < 1 | < 1 |
| Cc1cc(C)nc(N2CCN(c3ccc(NC(=O)C(=O)c4c(-c5ccccc5)c(C)cn4C)cc3)CC2)c1 [Example 18, 2-(1,4-Dimethyl-3-phenyl-1H-pyrrol-2-yl)-N-{4-[4-(4,6-dimethyl-pyridin-2-yl)-piperazin-1-yl]-phenyl}-2-oxo-acetamide] | < 1 | > 10 | < 1 | < 1 | < 1 | < 1 | 1 to 10 (≈ 1.97 to 19.7 µM) | > 10 | < 1 | < 1 | < 1 | < 1 |
| Cc1cc(C)nc(N2CCN(c3ccc(NC(=O)C(=O)c4c(-c5ccccc5)cc(C)n4Cc4cccnc4)cc3)CC2)c1 [Example 93, N-{4-[4-(4,6-Dimethyl-pyridin-2-yl)-piperazin-1-yl]-phenyl}-2-(5-methyl-3-phenyl-1-pyridin-3-ylmethyl-1H-pyrrol-2-yl)-2-oxo-acetamide] | 1 to 10 (≈ 1.71 to 17.1 µM) | < 1 | 1 to 10 (≈ 1.71 to 17.1 µM) | < 1 | < 1 | 1 to 10 (≈ 1.71 to 17.1 µM) | > 10 | 1 to 10 (≈ 1.71 to 17.1 µM) | > 10 | 1 to 10 (≈ 1.71 to 17.1 µM) | 1 to 10 (≈ 1.71 to 17.1 µM) | > 10 |
| Cc1cc(C)nc(N2CCN(c3ccc(NC(=O)C(=O)c4cccn4-c4ccccc4)cc3)CC2)c1 [Example 2, N-{4-[4-(4,6-Dimethyl-pyridin-2-yl)-piperazin-1-yl]-phenyl}-2-oxo-2-(1-phenyl-1H-pyrrol-2-yl)-acetamide] | < 1 | > 10 | < 1 | 1 to 10 (≈ 2.09 to 20.9 µM) | 1 to 10 (≈ 2.09 to 20.9 µM) | < 1 | > 10 | > 10 | > 10 | > 10 | > 10 | > 10 |

The next lines start with the values.

| MIC (Aspergillus flavus [1]) [mg/L] | MIC (Aspergillus niger [2]) [mg/L] | MIC (Aspergillus terreus AT4 [3]) [mg/L] | MIC [4] [mg/L] | MIC [5] [mg/L] | MIC (Aspergillus terreus AT49 [6]) [mg/L] | MIC (Aspergillus flavus [7]) [mg/L] | MIC (Aspergillus niger [8]) [mg/L] | MIC (Aspergillus terreus AT4 [9]) [mg/L] | MIC [10] [mg/L] | MIC [11] [mg/L] | MIC (Aspergillus terreus AT49 [12]) [mg/L] | Compound |
| --- | --- | --- | --- | --- | --- | --- | --- | --- | --- | --- | --- | --- |
| < 1 | < 1 | < 1 | < 1 | < 1 | < 1 | > 10 | < 1 | < 1 | < 1 | < 1 | < 1 | CCOCn1c(C)cc(-c2ccccc2)c1C(=O)C(=O)Nc1ccc(N2CCN(c3cc(C)cc(C)n3)CC2)cc1 [Example 132, N-{4-[4-(4,6-Dimethyl-pyridin-2-yl)-piperazin-1-yl]-phenyl}-2-(1-ethoxymethyl-5-methyl-3-phenyl-1H-pyrrol-2-yl)-2-oxo-acetamide] |
| > 10 | > 10 | > 10 | > 10 | > 10 | > 10 | > 10 | > 10 | > 10 | > 10 | > 10 | > 10 | CC(=O)NCCn1c(C)cc(-c2ccccc2)c1C(=O)C(=O)Nc1ccc(N2CCN(c3cc(C)cc(C)n3)CC2)cc1 [Example 65, 2-[1-(2-Acetylamino-ethyl)-5-methyl-3-phenyl-1H-pyrrol-2-yl]-N-{4-[4-(4,6-dimethyl-pyridin-2-yl)-piperazin-1-yl]-phenyl}-2-oxo-acetamide] |
| 1 to 10 (≈ 1.48 to 14.8 µM) | > 10 | > 10 | > 10 | > 10 | 1 to 10 (≈ 1.48 to 14.8 µM) | > 10 | > 10 | > 10 | > 10 | > 10 | > 10 | Cc1cc(C)nc(N2CCN(c3ccc(NC(=O)C(=O)c4c(-c5ccccc5)cc(C)n4C)cc3COCCCN3CCN(C)CC3)CC2)c1 [Example 19, 2-(1,5-Dimethyl-3-phenyl-1H-pyrrol-2-yl)-N-{4-[4-(4,6-dimethyl-pyridin-2-yl)-piperazin-1-yl]-3-[3-(4-methyl-piperazin-1-yl)-propoxymethyl]-phenyl}-2-oxo-acetamide] |
| < 1 | < 1 | < 1 | < 1 | < 1 | < 1 | < 1 | < 1 | < 1 | < 1 | < 1 | < 1 | Cc1cc(C)nc(N2CCN(c3ccc(NC(=O)C(=O)c4c(-c5ccccc5)cc(C)n4C)c(Cl)c3)CC2)c1 [Example 21, N-{2-Chloro-4-[4-(4,6-dimethyl-pyridin-2-yl)-piperazin-1-yl]-phenyl}-2-(1,5-dimethyl-3-phenyl-1H-pyrrol-2-yl)-2-oxo-acetamide] |
| < 1 | < 1 | < 1 | < 1 | < 1 | < 1 | < 1 | < 1 | < 1 | < 1 | < 1 | 1 to 10 (≈ 1.76 to 17.6 µM) | COCCn1c(C)cc(-c2ccccc2)c1C(=O)C(=O)Nc1ccc(N2CCN(c3cc(C)cc(C)n3)CC2)cc1F [Example 123, N-{4-[4-(4,6-Dimethyl-pyridin-2-yl)-piperazin-1-yl]-2-fluoro-phenyl}-2-[1-(2-methoxy-ethyl)-5-methyl-3-phenyl-1H-pyrrol-2-yl)-2-oxo-acetamide] |
